Test results published in ChEMBL document CHEMBL1158449, “Hirtellanines A and B, a pair of isomeric isoflavonoid derivatives from Campylotropis hirtella and their immunosuppressive activities” (Bioorg Med Chem Lett, 2009).

Columns and labels:
Splenocyte [1] = test: Selectivity index, CC50 for splenocytes to IC50 for concanavalin A-induced splenocyte proliferation; assay type: functional
Splenocyte [2] = test: Selectivity index, CC50 for splenocyte to IC50 for LPS-induced splenocytes proliferation; assay type: functional
Splenocyte [3] = test: Immunosuppressive activity in splenocytes assessed as inhibition of concanavalin A-induced proliferation after 48 hrs by [3H]thymidine incorporation assay; assay type: functional, cell-based; conditions: Mus musculus
[4] = Cytotoxicity against splenocytes after 48 hrs by MTT assay; assay type: cell-based, Splenocyte
Splenocyte [5] = test: Immunosuppressive activity in splenocytes assessed as inhibition of LPS-induced proliferation after 48 hrs by [3H]thymidine incorporation assay; assay type: functional, cell-based; conditions: Mus musculus

| SMILES | Ratio CC50/IC50 (Splenocyte [1]) | Ratio CC50/IC50 (Splenocyte [2]) | IC50 (Splenocyte [3]) | CC50 at 48 h [4] | IC50 (Splenocyte [5]) |
| --- | --- | --- | --- | --- | --- |
| C/C=C/C[C@@H](C)[C@@H](O)[C@H]1C(=O)N[C@@H](CC)C(=O)N(C)CC(=O)N(C)[C@@H](CC(C)C)C(=O)N[C@@H](C(C)C)C(=O)N(C)[C@@H](CC(C)C)C(=O)N[C@@H](C)C(=O)N[C@H](C)C(=O)N(C)[C@@H](CC(C)C)C(=O)N(C)[C@@H](CC(C)C)C(=O)N(C)[C@@H](C(C)C)C(=O)N1C [CYCLOSPORINE] | 88 | 12.39 |  |  |  |
| COc1c2c(cc3oc4oc5cc(O)c(O)cc5c4c(=O)c13)OC(C)(C)C=C2 [HIRTELLANINE A] | 3.29 | 50.5 | 0.92 µM | 3.03 µM | 0.06 µM |
| COc1c2c(cc3oc(=O)c4c5cc(O)c(O)cc5oc4c13)OC(C)(C)C=C2 [HIRTELLANINE B] | 2.76 | 8.77 | 9.55 µM | 26.3 µM | 3 µM |
